Literature values, collected in patent US20240156726A1, “MULTI-LAYER ORAL THIN FILM” (LTS LOHMANN THERAPIE-SYSTEME AG, priority 2021, published 2024).

Conditions: compared with (R)-ketamine

CNC1(c2ccccc2Cl)CCCCC1=O (racemic) [(S)-ketamine, (S)-(±)-2-(2-chlorophenyl)-2-(methylamino)cyclohexan-1-one]
analgesic and anaesthetic potency relative to the (R) form: approximately three times higher
